Test results as given in patent US10131652B2, “Pyrimidinyloxy benzene derivatives as herbicides” (E. I. DU PONT DE NEMOURS AND COMPANY, priority 2014, dated 2018).

Tests used:
Format in all cases: in vivo
[1] = tested on: barnyardgrass (Echinochloa crus-galli); experiment: Test B pre-/postemergence plant response
Procedure, shortened: (§1)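 Ratings reflect visual injury versus untreated controls, from 0 for no effect to 100 for complete control, assessed roughly 10 days after treatment. Formulation: non-phytotoxic solvent mix with surfactant; pre- and postemergence sprays on plants grown in loam soil and sand.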

[2] = tested on: corn (Zea mays); experiment: Test B pre-/postemergence plant response
Procedure, shortened: as §1

[3] = tested on: giant foxtail (Setaria faberii); experiment: Test B pre-/postemergence plant response
Procedure, shortened: as §1

[4] = tested on: large (Lg) crabgrass (Digitaria sanguinalis); experiment: Test B pre-/postemergence plant response
Procedure, shortened: as §1

[5] = tested on: morningglory (Ipomoea spp.); experiment: Test B pre-/postemergence plant response
Procedure, shortened: as §1

[6] = tested on: pigweed (Amaranthus retroflexus); experiment: Test B pre-/postemergence plant response
Procedure, shortened: as §1

[7] = tested on: velvetleaf (Abutilon theophrasti); experiment: Test B pre-/postemergence plant response
Procedure, shortened: as §1

[8] = tested on: wheat (Triticum aestivum); experiment: Test B pre-/postemergence plant response
Procedure, shortened: as §1

[9] = tested on: barnyardgrass (Echinochloa crus-galli); experiment: Test C flooded paddy test plant response; details: Flood, 250 g ai/ha; scale of 0 to 100 where 0 is no effect and 100 is complete control; 13 to 15 days
Procedure, shortened: (§2)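 Visual injury ratings (0, no effect; 100, complete control) were assigned after 13 to 15 days in a greenhouse, comparing treated plants with controls. Compounds had been added straight into paddy water over 2-leaf-stage plants flooded to 3 cm.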

[10] = tested on: ducksalad (Heteranthera limosa); experiment: Test C flooded paddy test plant response; details: Flood, 250 g ai/ha; scale of 0 to 100 where 0 is no effect and 100 is complete control; 13 to 15 days
Procedure, shortened: as §2

[11] = tested on: rice (Oryza sativa); experiment: Test C flooded paddy test plant response; details: Flood, 250 g ai/ha; scale of 0 to 100 where 0 is no effect and 100 is complete control; 13 to 15 days
Procedure, shortened: as §2

[12] = tested on: small-flower umbrella sedge (Cyperus difformis); experiment: Test C flooded paddy test plant response; details: Flood, 250 g ai/ha; scale of 0 to 100 where 0 is no effect and 100 is complete control; 13 to 15 days
Procedure, shortened: as §2

[13] = 125 g ai/ha, postemergence, 0 to 100 scale, 0 no effect, 100 complete control
[14] = Postemergence, 500 g ai/ha, 0 to 100 scale (0 no effect, 100 complete control)
[15] = Preemergence, 125 g ai/ha, 0 to 100 scale where 0 is no effect and 100 is complete control
[16] = Preemergence, 500 g ai/ha, 0 to 100 scale where 0 is no effect and 100 is complete control
[17] = Postemergence, 1000 g ai/ha, 0 to 100 scale (0 no effect, 100 complete control)
[18] = Preemergence, 1000 g ai/ha, 0 to 100 scale (0 no effect, 100 complete control)

| Structure (SMILES) | Plant response rating, Barnyardgrass [1, 13] | Plant response rating, Barnyardgrass [1, 14] | Plant response rating, Barnyardgrass [1, 15] | Plant response rating, Barnyardgrass [1, 16] | Plant response rating, Corn [2, 13] | Plant response rating, Corn [2, 14] | Plant response rating, Corn [2, 15] | Plant response rating, Corn [2, 16] | Plant response rating, Foxtail, Giant [3, 13] | Plant response rating, Foxtail, Giant [3, 14] | Plant response rating, Foxtail, Giant [3, 15] | Plant response rating, Foxtail, Giant [3, 16] | Plant response rating, Crabgrass, Large [4, 13] | Plant response rating, Crabgrass, Large [4, 14] | Plant response rating, Crabgrass, Large [4, 15] | Plant response rating, Crabgrass, Large [4, 16] | Barnyardgrass plant response rating [9] | Ducksalad plant response rating [10] | Rice plant response rating [11] | Sedge, Umbrella plant response rating [12] | further results |
| --- | --- | --- | --- | --- | --- | --- | --- | --- | --- | --- | --- | --- | --- | --- | --- | --- | --- | --- | --- | --- | --- |
| Clc1cnc(Oc2ccccc2-c2cc(Cl)cc(Cl)c2)nc1 [Compound 41] | 0 | 20 | 0 | 0 | 0 | 10 | 0 | 0 | 10 | 20 | 0 | 20 | 10 | 20 | 0 | 10 | 0 | 0 | 0 | 0 | Plant response rating, Morningglory [5, 13]: 0; Plant response rating, Morningglory [5, 14]: 10; Plant response rating, Morningglory [5, 15]: 0; Plant response rating, Morningglory [5, 16]: 0; Plant response rating, Pigweed [6, 13]: 40; Plant response rating, Pigweed [6, 14]: 70; Plant response rating, Pigweed [6, 15]: 0; Plant response rating, Pigweed [6, 16]: 0; Plant response rating, Velvetleaf [7, 13]: 10; Plant response rating, Velvetleaf [7, 14]: 30; Plant response rating, Velvetleaf [7, 15]: 0; Plant response rating, Velvetleaf [7, 16]: 0; Plant response rating, Wheat [8, 13]: 0; Plant response rating, Wheat [8, 14]: 0; Plant response rating, Wheat [8, 15]: 0; Plant response rating, Wheat [8, 16]: 0 |
| FC(F)(F)c1ccc(-c2ccccc2Oc2ncc(Cl)cn2)cc1 [Compound 43] | 0 | 20 | 0 | 20 | 0 | 10 | 0 | 0 | 0 | 20 | 0 | 70 | 0 | 20 | 0 | 30 | 0 | 0 | 0 | 0 | Plant response rating, Morningglory [5, 13]: 0; Plant response rating, Morningglory [5, 14]: 20; Plant response rating, Morningglory [5, 15]: 0; Plant response rating, Morningglory [5, 16]: 10; Plant response rating, Pigweed [6, 13]: 30; Plant response rating, Pigweed [6, 14]: 70; Plant response rating, Pigweed [6, 15]: 0; Plant response rating, Pigweed [6, 16]: 0; Plant response rating, Velvetleaf [7, 13]: 20; Plant response rating, Velvetleaf [7, 14]: 70; Plant response rating, Velvetleaf [7, 15]: 0; Plant response rating, Velvetleaf [7, 16]: 10; Plant response rating, Wheat [8, 13]: 0; Plant response rating, Wheat [8, 14]: 0; Plant response rating, Wheat [8, 15]: 0; Plant response rating, Wheat [8, 16]: 0 |
| Cc1ccc(Oc2ncc(Cl)cn2)c(-c2cccc(OC(F)(F)F)c2)c1 [Compound 44] | 10 | 20 | 0 | 10 | 0 | 20 | 0 | 0 | 0 | 10 | 0 | 10 | 10 | 20 | 10 | 70 | 0 | 0 | 0 | 0 | Plant response rating, Morningglory [5, 13]: 20; Plant response rating, Morningglory [5, 14]: 30; Plant response rating, Morningglory [5, 15]: 0; Plant response rating, Morningglory [5, 16]: 0; Plant response rating, Pigweed [6, 13]: 20; Plant response rating, Pigweed [6, 14]: 50; Plant response rating, Pigweed [6, 15]: 0; Plant response rating, Pigweed [6, 16]: 10; Plant response rating, Velvetleaf [7, 13]: 30; Plant response rating, Velvetleaf [7, 14]: 70; Plant response rating, Velvetleaf [7, 15]: 0; Plant response rating, Velvetleaf [7, 16]: 20; Plant response rating, Wheat [8, 13]: 0; Plant response rating, Wheat [8, 14]: 0; Plant response rating, Wheat [8, 15]: 0; Plant response rating, Wheat [8, 16]: 0 |
| Fc1cccc(Oc2ncc(Cl)cn2)c1-c1cccc(OC(F)(F)F)c1 [Compound 46] | – | – | – | – | – | – | – | – | – | – | – | – | – | – | – | – | 20 | 60 | 35 | 50 | Plant response rating, Barnyardgrass [1, 17]: 90; Plant response rating, Barnyardgrass [1, 18]: 80; Plant response rating, Corn [2, 17]: 20; Plant response rating, Corn [2, 18]: 0; Plant response rating, Foxtail, Giant [3, 17]: 100; Plant response rating, Foxtail, Giant [3, 18]: 100; Plant response rating, Crabgrass, Large [4, 17]: 100; Plant response rating, Crabgrass, Large [4, 18]: 100; Plant response rating, Morningglory [5, 17]: 70; Plant response rating, Morningglory [5, 18]: 10; Plant response rating, Pigweed [6, 17]: 100; Plant response rating, Pigweed [6, 18]: 100; Plant response rating, Velvetleaf [7, 17]: 100; Plant response rating, Velvetleaf [7, 18]: 20; Plant response rating, Wheat [8, 17]: 20; Plant response rating, Wheat [8, 18]: 10 |
| FC(F)(F)c1cc(-c2ccccc2Oc2ncc(Br)cn2)on1 [Compound 64] | 90 | 100 | 60 | 100 | 20 | 30 | 0 | 20 | 60 | 80 | 90 | 100 | 60 | 90 | 100 | 100 | 35 | 95 | 0 | 80 | Plant response rating, Morningglory [5, 13]: 70; Plant response rating, Morningglory [5, 14]: 100; Plant response rating, Morningglory [5, 15]: 0; Plant response rating, Morningglory [5, 16]: 60; Plant response rating, Pigweed [6, 13]: 100; Plant response rating, Pigweed [6, 14]: 100; Plant response rating, Pigweed [6, 15]: 100; Plant response rating, Pigweed [6, 16]: 100; Plant response rating, Velvetleaf [7, 13]: 100; Plant response rating, Velvetleaf [7, 14]: 100; Plant response rating, Velvetleaf [7, 15]: 80; Plant response rating, Velvetleaf [7, 16]: 90; Plant response rating, Wheat [8, 13]: 0; Plant response rating, Wheat [8, 14]: 10; Plant response rating, Wheat [8, 15]: 0; Plant response rating, Wheat [8, 16]: 30 |
